Data taken from US20090264433A1, “Compounds, Compositions and Methods Comprising Triazine Derivatives” (Institute for OneWorld Health, priority 2008, published 2009).
Where a name gives a salt, the structure may show the parent alone.

Biological target: T1, CFTR channel in human colonic T84 cells (Homo sapiens, UniProt P13569)
T1 construct: results in the phosphorylation and opening of CFTR anion channels; host or cells: human colonic T84 cells
Assay: T84 assay (FLIPR membrane potential dye, forskolin/IBMX-stimulated CFTR)
Type: cell-based
Details: average of at least 2 runs unless annotated n = 1
Outline: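 T84 cells (25,000/well, grown overnight) were washed in HBSS with 10 mM Hepes, then loaded with FLIPR Red membrane potential dye for 45 min with or without compound. CFTR was stimulated with 10 μM forskolin plus 100 μM IBMX after a 10 s baseline. Depolarization was tracked as a fluorescence increase, read every second for 150 s.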

T1 sequence (P13569 whole entry): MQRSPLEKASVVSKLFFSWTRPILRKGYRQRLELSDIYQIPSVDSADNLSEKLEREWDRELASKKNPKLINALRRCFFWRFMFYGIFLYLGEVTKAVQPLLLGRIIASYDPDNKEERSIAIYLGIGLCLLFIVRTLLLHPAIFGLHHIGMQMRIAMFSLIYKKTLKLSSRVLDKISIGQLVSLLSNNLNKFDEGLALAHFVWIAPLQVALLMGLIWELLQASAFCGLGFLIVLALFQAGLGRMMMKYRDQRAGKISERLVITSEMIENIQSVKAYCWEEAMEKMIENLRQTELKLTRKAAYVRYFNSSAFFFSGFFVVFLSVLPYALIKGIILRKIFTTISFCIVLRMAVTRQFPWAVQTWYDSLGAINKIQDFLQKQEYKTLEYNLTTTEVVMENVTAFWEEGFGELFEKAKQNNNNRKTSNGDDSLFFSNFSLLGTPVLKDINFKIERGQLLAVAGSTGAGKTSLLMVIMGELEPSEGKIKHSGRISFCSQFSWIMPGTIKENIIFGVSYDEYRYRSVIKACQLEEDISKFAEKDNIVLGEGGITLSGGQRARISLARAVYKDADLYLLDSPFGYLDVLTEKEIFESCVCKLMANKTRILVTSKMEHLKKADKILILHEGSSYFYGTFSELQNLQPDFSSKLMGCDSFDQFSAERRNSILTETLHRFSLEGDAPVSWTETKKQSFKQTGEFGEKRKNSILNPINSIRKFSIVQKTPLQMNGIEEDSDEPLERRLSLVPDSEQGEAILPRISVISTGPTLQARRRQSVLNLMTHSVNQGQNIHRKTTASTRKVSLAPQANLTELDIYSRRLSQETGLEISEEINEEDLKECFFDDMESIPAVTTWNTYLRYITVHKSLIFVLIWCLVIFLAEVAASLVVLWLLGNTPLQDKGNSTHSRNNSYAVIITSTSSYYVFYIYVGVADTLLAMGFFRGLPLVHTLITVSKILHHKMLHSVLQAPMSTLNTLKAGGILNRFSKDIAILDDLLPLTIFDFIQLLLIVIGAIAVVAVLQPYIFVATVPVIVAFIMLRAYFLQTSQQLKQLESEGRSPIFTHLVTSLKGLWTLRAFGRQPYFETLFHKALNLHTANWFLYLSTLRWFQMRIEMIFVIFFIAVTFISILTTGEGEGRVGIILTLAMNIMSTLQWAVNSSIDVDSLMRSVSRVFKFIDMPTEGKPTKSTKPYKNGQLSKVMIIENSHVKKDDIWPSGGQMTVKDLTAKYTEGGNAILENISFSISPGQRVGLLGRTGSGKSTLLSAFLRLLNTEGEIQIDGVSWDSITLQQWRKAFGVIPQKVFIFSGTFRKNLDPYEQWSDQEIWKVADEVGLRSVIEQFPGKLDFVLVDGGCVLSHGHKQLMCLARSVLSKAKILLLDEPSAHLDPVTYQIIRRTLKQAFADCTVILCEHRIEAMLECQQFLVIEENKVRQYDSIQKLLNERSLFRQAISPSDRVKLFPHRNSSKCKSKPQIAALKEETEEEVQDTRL

| IC50 [µM] | SMILES |
| --- | --- |
| 14.4 | CN(Cc1ccc(COc2ncc(-c3cc(Cl)c(O)c(Cl)c3)nn2)cc1)C(c1ccccc1)c1ccccc1 [Compound 171, 4-(3-(4-((benzhydryl(methyl)amino)methyl)benzyloxy)-1,2,4-triazin-6-yl)-2,6-dichlorophenol] |
| 3.36 | OCCN(Cc1ccc(COc2ncc(-c3cc(Cl)c(O)c(Cl)c3)nn2)cc1)Cc1ccccc1Cl [Compound 172, 2,6-dichloro-4-(3-(4-(((2-chlorobenzyl)(2-hydroxyethyl)amino)methyl)benzyl-ozyloxy)-1,2,4-triazin-6-yl)phenol] |
| 15.1 | Oc1c(Cl)cc(-c2cnc(OCc3ccc(CN4CCC(C(O)(c5ccccc5)c5ccccc5)CC4)cc3)nn2)cc1Cl [Compound 174, 2,6-dichloro-4-(3-(4-((4-(hydroxydiphenylmethyl)piperidin-1-yl)methyl)benzyloxy)-1,2,4-triazin-6-yl)phenol, formate salt] |
| 11.7 | CN(Cc1ccncc1)Cc1ccc(COc2ncc(-c3cc(Cl)c(O)c(Cl)c3)nn2)cc1 [Compound 175, 2,6-dichloro-4-(3-(4-((methyl(pyridin-4-ylmethyl)amino)methyl)benzyl-oxy)-1,2,4-triazin-6-yl)phenol] |
| 3.92 | CN(Cc1ccc(COc2ncc(-c3cc(Cl)c(O)c(Cl)c3)nn2)cc1)Cc1ccc(Oc2ccccn2)cc1 [Compound 176, 2,6-dichloro-4-(3-(4-((methyl(4-(pyridin-2-yloxy)benzyl)amino)methyl)benzyloxy)-1,2,4-triazin-6-yl)phenol] |
| 2.22 | CN(Cc1ccc(COc2ncc(-c3cc(Cl)c(O)c(Cl)c3)nn2)cc1)Cc1cccc(-c2ccncc2)c1 [Compound 177, 2,6-dichloro-4-(3-(4-((methyl(3-(pyridin-4-yl)benzyl)amino)methyl)benzyl-oxy)-1,2,4-triazin-6-yl)phenol] |
| 3.31 | Oc1c(Cl)cc(-c2cnc(OCc3ccc(CN4Cc5ccc(F)cc5C4)cc3)nn2)cc1Cl [Compound 178, 2,6-dichloro-4-(3-(4-((5-fluoroisoindolin-2-yl)methyl)benzyloxy)-1,2,4-triazin-6-yl)phenol] |
| 2.33 | Oc1c(Cl)cc(-c2cnc(OCCc3ccc(F)cc3)nn2)cc1Cl [Compound 179, 2,6-dichloro-4-(3-(4-fluorophenethoxy)-1,2,4-triazin-6-yl)phenol] |
| 3.54 | Oc1c(Cl)cc(-c2cnc(OCc3ccc(CN4CCc5ccc(Br)cc5C4)cc3)nn2)cc1Cl [Compound 180] |
| 9.15 | CN(Cc1ccc(COc2ncc(-c3cc(Cl)c(O)c(Cl)c3)nn2)cc1)Cc1cccc2ccccc12 [Compound 181, 2,6-dichloro-4-(3-(4-((methyl(naphthalen-1-ylmethyl)amino)methyl)benzyl-oxy)-1,2,4-triazin-6-yl)phenol] |
| 11.8 | Oc1c(Cl)cc(-c2cnc(OCc3ccc(CN4CCCc5ccccc54)cc3)nn2)cc1Cl [Compound 182] |
| 14.6 | CN(Cc1ccc(COc2ncc(-c3cc(Cl)c(O)c(Cl)c3)nn2)cc1)Cc1cccc(Cl)c1Cl [Compound 183, 2,6-dichloro-4-(3-(4-(((2,3-dichlorobenzyl)(methyl)amino)methyl)benzyloxy)-1,2,4-triazin-6-yl)phenol] |
| 4.94 | CN(Cc1ccc(COc2ncc(-c3cc(Cl)c(O)c(Cl)c3)nn2)cc1)Cc1ccc(F)c(F)c1 [Compound 184, 2,6-dichloro-4-(3-(4-(((3,4-difluorobenzyl)(methyl)amino)methyl)benzyloxy)-1,2,4-triazin-6-yl)phenol] |
| 4.64 | CNC(=O)C1Cc2ccccc2CN1Cc1ccc(COc2ncc(-c3cc(Cl)c(O)c(Cl)c3)nn2)cc1 (stereo not shown) [Compound 185, 2-(4-((6-(3,5-dichloro-4-hydroxyphenyl)-1,2,4-triazin-3-yloxy)methyl)benzyl)-N-methyl-1,2,3,4-tetrahydroisoquinoline-3-carboxamide] |
| 6.97 | CN(Cc1ccc(COc2ncc(-c3cc(Cl)c(O)c(Cl)c3)nn2)cc1)Cc1cccc(Oc2ccccn2)c1 [Compound 186, 2,6-dichloro-4-(3-(4-((methyl(3-(pyridin-2-yloxy)benzyl)amino)methyl)benzyloxy)-1,2,4-triazin-6-yl)phenol] |
| 3.79 | CN(Cc1ccc(COc2ncc(-c3cc(Cl)c(O)c(Cl)c3)nn2)cc1)Cc1ccc(-c2ccncc2)cc1 [Compound 187, 2,6-dichloro-4-(3-(4-((methyl(4-(pyridin-4-yl)benzyl)amino)methyl)benzyl-oxy)-1,2,4-triazin-6-yl)phenol] |
| 10.3 | CC(C)(C)C(=O)N1CCN(Cc2ccc(COc3ncc(-c4cc(Cl)c(O)c(Cl)c4)nn3)cc2)CC1 [Compound 188, 1-(4-(4-((6-(3,5-dichloro-4-hydroxyphenyl)-1,2,4-triazin-3-yloxy)methyl)benzyl)piperazin1-yl)-2,2-dimethylpropan-1-one] |

| IC50 [µM] | SMILES |
| --- | --- |
| 4.72 | CN(Cc1ccc(COc2ncc(-c3cc(Cl)c(O)c(Cl)c3)nn2)cc1)Cc1ccc2ncccc2c1 [Compound 189, 2,6-dichloro-4-(3-(4-((methyl(quinolin-6-ylmethyl)amino)methyl)benzyl-oxy)-1,2,4-triazin-6-yl)phenol] |
| 21 | CCN(CC)CC(NCc1ccc(COc2ncc(-c3cc(Cl)c(O)c(Cl)c3)nn2)cc1)c1ccccc1 (stereo not shown) [Compound 190, 2,6-dichloro-4-(3-(4-((2-(diethylamino)-1-phenylethylamino)methyl)benzyloxy)-1,2,4-triazin-6-yl)phenol] |
| 19.8 | OCCN(Cc1ccc(COc2ncc(-c3cc(Cl)c(O)c(Cl)c3)nn2)cc1)Cc1cccnc1 [Compound 191, 2,6-dichloro-4-(3-(4-(((2-hydroxyethyl)(pyridin-3-ylmethyl)amino)methyl)benzyl-oxy)-1,2,4-triazin-6-yl)phenol] |
| 2.13 | CCN(Cc1ccccc1)Cc1ccc(COc2ncc(-c3cc(Cl)c(O)c(Cl)c3)nn2)cc1 [Compound 192, 4-(3-(4-((benzyl(ethyl)amino)methyl)benzyloxy)-1,2,4-triazin-6-yl)-2,6-dichlorophenol] |
| 3.92 | Oc1c(Cl)cc(-c2cnc(OCc3ccc(CN4CCc5ccccc5C4c4ccncc4)cc3)nn2)cc1Cl (stereo not shown) [Compound 193] |
| 18.9 | Oc1c(Cl)cc(-c2cnc(OCc3ccc(CNC(CN4CCCC4)c4ccccc4)cc3)nn2)cc1Cl (stereo not shown) [Compound 194, 2,6-dichloro-4-(3-(4-((1-phenyl2-(pyrrolidin-1-yl)ethylamino)methyl)benzyloxy)-1,2,4-triazin-6-yl)phenol] |
| 7.47 | CN1CCN(CC(NCc2ccc(COc3ncc(-c4cc(Cl)c(O)c(Cl)c4)nn3)cc2)c2ccccc2)CC1 (stereo not shown) [Compound 195, 2,6-dichloro-4-(3-(4-((2-(4-methylpiperazin-1-yl)-1-phenylethylamino)methyl)benzyloxy)-1,2,4-triazin-6-yl)phenol] |
| 5.89 | CN(Cc1ccc(COc2ncc(-c3cc(Cl)c(O)c(Cl)c3)nn2)cc1)C(CN1CCOCC1)c1ccccc1 (stereo not shown) [Compound 196, 2,6-dichloro-4-(3-(4-((methyl(2-morpholino-1-phenylethyl)amino)methyl)benzyloxy)-1,2,4-triazin-6-yl)phenol] |
| 2.64 | CN(Cc1ccc(COc2ncc(-c3cc(Cl)c(O)c(Cl)c3)nn2)cc1)Cc1ccc(-c2ccccn2)cc1 [Compound 197, 2,6-dichloro-4-(3-(4-((methyl(4-(pyridin-2-yl)benzyl)amino)methyl)benzyl-oxy)-1,2,4-triazin-6-yl)phenol] |
| 9.94 | CN(C)CCOc1ccc(CN(C)Cc2ccc(COc3ncc(-c4cc(Cl)c(O)c(Cl)c4)nn3)cc2)cc1 [Compound 198, 2,6-dichloro-4-(3-(4-(((4-(2-(dimethylamino)ethoxy)benzyl)(methyl)amino)methyl)benzyloxy)-1,2,4-triazin-6-yl)phenol] |
| 7.54 | CN(C)CCCOc1ccc(CN(C)Cc2ccc(COc3ncc(-c4cc(Cl)c(O)c(Cl)c4)nn3)cc2)cc1 [Compound 199, 2,6-dichloro-4-(3-(4-(((4-(3-(dimethylamino)propoxy)benzyl)(methyl)amino)methyl)benzyl-oxy)-1,2,4-triazin-6-yl)phenol] |
| 5.89 | CN(Cc1ccc(COc2ncc(-c3cc(Cl)c(O)c(Cl)c3)nn2)cc1)Cc1cccc(CN2CCOCC2)c1 [Compound 200, 2,6-dichloro-4-(3-(4-((methyl(3-(morpholinomethyl)benzyl)amino)methyl)benzyloxy)-1,2,4-triazin-6-yl)phenol] |
| 9.99 | CN1CCCN(Cc2ccc(CN(C)Cc3ccc(COc4ncc(-c5cc(Cl)c(O)c(Cl)c5)nn4)cc3)cc2)CC1 [Compound 201, 2,6-dichloro-4-(3-(4-((methyl(4-((4-methyl-1,4-diazepan-1-yl)methyl)benzyl)amino)methyl)benzyloxy)-1,2,4-triazin-6-yl)phenol] |
| 1.87 | CN(Cc1ccc(COc2ncc(-c3cc(Cl)c(O)c(Cl)c3)nn2)cc1)Cc1ccc(-c2ncccn2)cc1 [Compound 202, 2,6-dichloro-4-(3-(4-((methyl(4-(pyrimidin-2-yl)benzyl)amino)methyl)benzyl-oxy)-1,2,4-triazin-6-yl)phenol] |
| 2.43 | Cc1cncc(Oc2cccc(CN(C)Cc3ccc(COc4ncc(-c5cc(Cl)c(O)c(Cl)c5)nn4)cc3)c2)n1 [Compound 203, 2,6-dichloro-4-(3-(4-((methyl(3-(6-methylpyrazin-2-yloxy)benzyl)amino)methyl)benzyloxy)-1,2,4-triazin-6-yl)phenol] |
| 2.43 | CN(C)CCCOc1cccc(CN(C)Cc2ccc(COc3ncc(-c4cc(Cl)c(O)c(Cl)c4)nn3)cc2)c1 [Compound 204, 2,6-dichloro-4-(3-(4-(((3-(3-(dimethylamino)propoxy)benzyl)(methyl)amino)methyl)benzyl-oxy)-1,2,4-triazin-6-yl)phenol] |

| SMILES | IC50 [µM] |
| --- | --- |
| Oc1c(Cl)cc(-c2cnc(OCc3ccc(CN4CCC(O)(c5ccccc5)CC4)cc3)nn2)cc1Cl [Compound 173, 1-(4-((6-(3,5-dichloro-4-hydroxyphenyl)-1,2,4-triazin-3-yloxy)methyl)benzyl)-4-phenylpiperidin-4-ol] | 28.4 |
